Legend:
PKC [1] = settings: cited from earlier work
hippocampal CA1 area = assay: Immunohistochemistry of synaptic markers (GAP-43, neurogranin, synaptophysin) in hippocampal CA1 area of Fragile X mice; format: in vivo
Protocol: (§1) Non-treated groups received the same volume of vehicle at the same frequency of administration as the treated groups.
Hippocampal slices at 400 μm thickness were further immersed in the fixative (4% paraformaldehyde in PBS) for 30 min at room temperature and then sectioned at 35 μm thickness by using a vibratome. Sections were then processed for immunohistochemistry as described in Hongpaisan et al., J Neurosci., 2004, 24:10878-10887. Tissue sections were incubated free-floating with primary antibodies against spinophilin (polyclonal IgG; 1:100; Upstate/Millipore), synaptophysin (monoclonal IgG; 1:2,000; Chemicon/Millipore), and/or HuC/D (monoclonal IgG; 1:100; Molecular Probes) at room temperature overnight. For a polyclonal antibody, tissue sections were incubated with Alexa Fluor 568 goat anti-rabbit IgG (1:200; Molecular Probes) for 3 h at room temperature. For monoclonal antibodies, sections were treated with a biotinylated secondary antibody (1:20; Vector Laboratories) for 3 h at room temperature and then with streptavidin conjugated with Alexa Fluor 488 (1:100; Molecular Probes) for 3 h at room temperature. Sections were mounted with […] mounting medium with DAPI to counterstain nuclei (Vector Laboratories) and imaged with the confocal microscope (512 pixels×512 pixels).
(§2) All data were quantified by using the ImageJ program. The appearance of spinophilin and synaptophysin profiles in a 63-μm×63-μm image taken from the superficial part of the stratum radiatum were analyzed with the photographic negative after background subtraction. The total number of spinophilin and synaptophysin granules were then counted by using ImageJ. Synaptophysin intensity was defined in the whole area of a 63-μm×63-μm image. HuC/D immunostaining was quantified by measuring fluorescence intensity in the proximal dendrite portion of each individual CA1 pyramidal neuron. The naive control data were set at 100%, and all other experiment data were defined as the percentage of their control.
(§3) The mice were then sacrificed and hippocampal sections were removed and treated as described in Example 2.

[2] = test system: ischemia-induced deficits; settings: postischemic/hypoxic treatment; cited from earlier work
[3] = test system: mushroom-shaped dendritic spines; settings: rats; cited from earlier work
Aβ(1-42) = settings: transgenic mice with human AD genes; cited from earlier work
synaptophysin = assay: Synaptophysin immunohistochemistry in hippocampus of aged rats; format: in vivo
Protocol: Under anesthesia (choral hydrate; Sigma-Aldrich; 400 mg/kg body weight, i.p.), rats were perfused through the heart with PBS by gravity to wash out the blood and then lightly fixed with 150 ml of 4% paraformaldehyde in PBS at room temperature, instead of a cold fixative, because hypothermia can reduce the number of dendritic spines. Brains were removed and postfixed for 10 min. Thereafter, hippocampi were isolated from the right brain hemispheres, and dorsal hippocampi were sectioned with a vibratome at 400 μm for DiI staining and immunohistochemistry.
Hippocampal slices at 400 μm thickness were further immersed in the fixative (4% paraformaldehyde in PBS) for 30 min at room temperature and then sectioned at 35 μm thickness by using a vibratome. Sections were then processed for immunohistochemistry as described in Hongpaisan et al., J Neurosci., 2004, 24:10878-10887. […]
as §2, with “Synaptophysin intensity was defined in the whole area of a 63-μm×63-μm image.” left out, “The naive control data were set at 100%, and all other experiment data were defined as the percentage of their control.” left out

FMR1 mice = assay: Spatial water maze in Fragile X (FMR1) mice; format: in vivo; settings: 20 μg/m^2 tail i.v., 2 doses/week for 13 weeks, vs FMR1 with vehicle p<0.001
Excerpt: Two types of mice (male, The Jackson Laboratories, ME, USA; 9-10 per group) were used in the study: FVB.129P2-Fmrl^tmlCgr/J (FMR1) and FVB.129P2-Pde6b^+ Tyr^c-ch/AntJ (as the control groups).
as §1
The first training of spatial water maze task began on the 10th day after the last dose. Mice were trained for 8 days (2 trials/day) to find a hidden platform, centered in one of the quadrants and submerged about 2 cm below the water surface. At the start of all trials, mice were placed individually in the water facing the maze wall, using different starting positions each trial, and allowed to swim until they found the platform, where they remained for 20 s, before being returned to their home cages. […] The swim path was recorded with a video-tracking system, which computed latency to the platform, swim distance, and percentage of time spent in the quadrants. After the training trials, a probe trial (a quadrant test or retention trial) was performed with the platform removed to assess memory retention for its location by the distance the mouse moved in the quadrants. The video-tracking system tracked the animal's movements in each quadrant during a period of one minute. […]

hippocampal CA1 neurons = assay: DiI staining and confocal microscopy of dendritic spines of hippocampal CA1 neurons in Fragile X mice; format: in vivo; settings: Fragile X transgenic mice
Protocol: as §1
The tips of glass electrodes, prepared as used for electrophysiology, were immersed in 5% (wt/vol) 1, 1′-dioctadecyl-3,3,3′,3′-tetramathyl-indocarbocyanineperchlorate (DiI, Molecular Probes/Invitrogen) in dichloromethane (Sigma-Aldrich) and air-dried at room temperature for 30 min. The tips of DiI-coated electrodes were inserted, broken, and left in the strata oriens of the CA1 area of hippocampal sections at […] thickness. After maintenance in PBS at 4° C. overnight to allow DiI to diffuse in the plasma membrane of the CA1 neurons, hippocampal sections were then resectioned to 35 μm thickness and mounted on glass slides, using PBS as the mounting medium. Dendritic spines stained with DiI in the strata radiatum were collected using a Zeiss Axiovert 200M microscope equipped with 510 confocal scanning system at 568 nm/>510 nm (excitation/emission). A stack of confocal images (taken every 0.4 μm) was collected to obtain all dendritic spines of an individual dendritic shaft. During analysis, a stack of images was retrieved with the ImageJ program (National Institutes of Health). Individual spines identified on one image were also verified on adjacent stacked images to approximate the three-dimensional structure of this spine. Those spines, which had head diameters more than three times larger than the diameter of their necks (FIGS. 1 d and e), were identified as mushroom spines. Approximately four to six stacked image sets were obtained from each animal. All image sets were pooled and coded; therefore, images were identified with unknown animal number and unknown treatment (double-blind protocol).
as §3

PKCε = target: T1, PKCε (Homo sapiens, UniProt Q02156); settings: cited from earlier work
T1 sequence (Q02156 1-737): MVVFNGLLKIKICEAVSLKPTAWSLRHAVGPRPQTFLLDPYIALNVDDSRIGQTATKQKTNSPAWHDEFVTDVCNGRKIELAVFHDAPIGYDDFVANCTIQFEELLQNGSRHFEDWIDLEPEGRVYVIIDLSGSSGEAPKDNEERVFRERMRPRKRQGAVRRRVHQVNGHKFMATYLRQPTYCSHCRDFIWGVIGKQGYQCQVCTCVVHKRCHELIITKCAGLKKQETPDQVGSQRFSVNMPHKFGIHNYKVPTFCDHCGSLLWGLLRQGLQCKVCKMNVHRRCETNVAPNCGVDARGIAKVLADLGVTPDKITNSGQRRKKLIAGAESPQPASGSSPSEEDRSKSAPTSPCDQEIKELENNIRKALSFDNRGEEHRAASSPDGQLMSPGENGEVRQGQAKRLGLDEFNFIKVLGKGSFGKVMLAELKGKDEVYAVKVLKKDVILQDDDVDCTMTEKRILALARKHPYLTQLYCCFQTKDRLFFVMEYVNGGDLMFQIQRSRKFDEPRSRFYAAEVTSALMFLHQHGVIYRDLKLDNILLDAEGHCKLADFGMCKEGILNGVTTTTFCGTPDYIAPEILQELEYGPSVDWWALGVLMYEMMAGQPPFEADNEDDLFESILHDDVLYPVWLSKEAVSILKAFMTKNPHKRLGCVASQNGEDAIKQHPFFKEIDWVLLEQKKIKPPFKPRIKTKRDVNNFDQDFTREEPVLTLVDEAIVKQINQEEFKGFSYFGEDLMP

PKC [4] = settings: K562 cells; cited from earlier work
[5] = test system: murine leukemias and solid tumors; settings: cited from earlier work
[6] = test system: cyclin dependent kinase 2 (Cdk2); settings: at 5 ng/ml; cited from earlier work
[7] = test system: squamous cell carcinoma and melanoma; settings: used topically; cited from earlier work
NCI 60 cell line screen = settings: cited from earlier work
protein kinase C = settings: specifically the (−)-enantiomer; read-out: EC50 (potency); cited from earlier work

CCCCCCCC(=O)O[C@H]1/C(=C/C(=O)OC)C[C@H]2C[C@H](CO)OC(=O)C[C@H](O)C[C@@H]3CCC[C@H](C[C@@H]4CCO[C@H](/C=C/C(C)(C)[C@]1(O)O2)O4)O3 [Analog 1]
affinity for PKC (in words) (PKC [1]): high affinity for PKC

CCC/C=C/C=C/C(=O)O[C@H]1/C(=C/C(=O)OC)C[C@H]2C[C@H]([C@@H](C)O)OC(=O)C[C@H](O)C[C@@H]3C[C@H](OC(C)=O)C(C)(C)[C@](O)(C[C@@H]4C/C(=C/C(=O)OC)C[C@H](/C=C/C(C)(C)[C@]1(O)O2)O4)O3 [Bryostatin 1, bryostatin-1]
postsynaptic membrane density, neurogranin; number of synapses (FIG. 8) (hippocampal CA1 area; Fragile X transgenic mice): can be restored
presynaptic membrane density, GAP-43 (FIG. 7) (hippocampal CA1 area; Fragile X transgenic mice): restored presynaptic membrane density in Fragile X transgenic mice to wild type levels
presynaptic vesicle concentration, synaptophysin fluorescence intensity (FIG. 9) (hippocampal CA1 area; Fragile X transgenic mice): significantly restored, and even enhanced
number of presynaptic axonal boutons, synaptophysin grains (FIG. 9) (hippocampal CA1 area; across experimental conditions): No difference
ischemia-induced deficits in synaptogenesis, neurotrophic activity, and spatial learning and memory [2]: effectively rescued
number of mushroom-shaped dendritic spines [3]: memory-specific increase
Aβ(1-42) levels in the brains (Aβ(1-42)): reduce
presence of synaptophysin (FIG. 3) (synaptophysin): increased
learning performance in water maze (FIG. 1) (FMR1 mice): significantly improved the learning performance
filopodia number per 100 μm of dendritic shaft (FIG. 6) (hippocampal CA1 neurons): improved the transformation of filopodia to dendritic spines
mushroom-shaped and total dendritic spines per 100 μm of dendritic shaft (FIG. 5) (hippocampal CA1 neurons): prevented the loss
number and density of dendritic mushroom spines (FIG. 4) (hippocampal CA1 neurons): restored the number and density of dendritic mushroom spines to wild-type levels

CCCCCC1CC1CC1CC1CCCCCCCC(=O)O (centres unmarked) [DCP-LA, 2-[(2-pentylcyclopropyl)methyl]cyclopropaneoctanoic acid]
concentration of maximal effect on PKCε activation (PKCε): 100 nM

C=C(C)[C@]12C[C@@H](COC(=O)c3ccccc3)[C@@]34OC5(O[C@@H]1[C@@H]3C1O[C@]1(CO)[C@@H](O)[C@@]1(O)[C@H]4[C@@H](C(C)CCCCCC[C@@H]5O)C(C)[C@@H]1OC(=O)c1ccccc1)O2 (some centres unmarked) [Gnidimacrin]
concentration at which it acts as a PKC activator (PKC [4]): ~3 nM
concentrations of potent antitumor activity [5]: 0.1 to 1 nM
inhibition of Cdk2 [6]: 100%

C/C=C(/C)C(=O)O[C@H]1C(C)=C[C@]23C(=O)[C@@H](C=C(CO)[C@@H](O)[C@]12O)[C@H]1[C@@H](C[C@H]3C)C1(C)C [Ingenol-3-angelate]
antitumor activity [7]: possesses antitumor activity

CC1=CC[C@H](C)C(C)(C)[C@@H]1/C=C/C(C)=C/CC[C@@]1(CO)[C@H](CCCO)/C(=C(/C)C=O)CC[C@]1(C)O [Iripallidal]
GI50 (concentration required to inhibit growth by 50%) (NCI 60 cell line screen): micromolar to nanomolar range

CCCCCCCCc1ccc2c3c(c[nH]c13)C[C@@H](CO)NC(=O)[C@H](C(C)C)N2C [octylindolactam V, Octylindolactam V]
EC50 (protein kinase C): 29 nM

Reference: patent publication US9597312B2, “Treatment of cognitive disorders associated with abnormal dendritic spines using PKC activators” (Cognitive Research Enterprises, Inc., priority 2010, dated 2017)
